Results: PubChem BioAssay (NCI)
“And” between values parts separate entries of the source, which are not always exact repeats. Identical values can stand only once.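 1) Cells in 96-well plates. 2) Compound, 48 h, 5 concentrations. 3) Linear interpolation between surrounding doses. 4) Unreached endpoint = highest concentration. Here, GI50 denotes the concentration required for 50% inhibition of growth. TGI: concentration producing complete growth inhibition.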

Key:
Experiment in all cases: NCI tumour cell line growth inhibition, 48 h
HT29 colon = test system: HT29 colon
MALME-3M melanoma = test system: MALME-3M melanoma
OVCAR-4 ovarian = test system: OVCAR-4 ovarian
NCI-H522 lung = test system: NCI-H522 lung
OVCAR-8 ovarian = test system: OVCAR-8 ovarian
M14 melanoma = test system: M14 melanoma
DU-145 prostate = test system: DU-145 prostate
SN12C renal = test system: SN12C renal
OVCAR-3 ovarian = test system: OVCAR-3 ovarian
CAKI-1 renal = test system: CAKI-1 renal

Compound | TGI (HT29 colon) | TGI (MALME-3M melanoma) | TGI (OVCAR-4 ovarian) | TGI (NCI-H522 lung) | TGI (OVCAR-8 ovarian) | GI50 (M14 melanoma) | TGI (M14 melanoma) | TGI (DU-145 prostate) | TGI (SN12C renal) | GI50 (OVCAR-3 ovarian) | TGI (OVCAR-3 ovarian) | GI50 (CAKI-1 renal) | TGI (CAKI-1 renal) | GI50 (HT29 colon) [µM] | GI50 (MALME-3M melanoma) [µM] | GI50 (OVCAR-4 ovarian) [µM] | GI50 (NCI-H522 lung) [µM] | GI50 (OVCAR-8 ovarian) [µM] | GI50 (DU-145 prostate) [µM] | GI50 (SN12C renal) [µM]
CCCCCCC(C)CC(CCCCCC)NCCOC(=O)c1ccc([N+](=O)[O-])cc1 (stereo not given) | 21.4 µM and 19 µM | 28 µM and 25.7 µM | 26.5 µM and 26.9 µM | 28.4 µM and 26.2 µM | 22.1 µM and 19.7 µM | 12.4 µM and 4.53 µM | 28.4 µM and 17.7 µM | 30.1 µM and 25.6 µM | 25.2 µM and 23.8 µM | 7.59 µM and 2.95 µM | 23.6 µM and 17.5 µM | 12.2 µM and 4.21 µM | 25.3 µM and 18.4 µM | – | – | – | – | – | – | –
CC1C(=O)N=C2C(=CN(Cc3ccccc3)c3ccccc32)C(=O)N1C (stereo not given) | > 100 µM | > 100 µM | > 100 µM | > 100 µM | > 100 µM | – | > 100 µM | > 100 µM | > 100 µM | – | > 100 µM | – | > 100 µM | – | – | – | – | – | – | –
COc1ccc(/C=C/C(=O)c2ccc(Nc3ncnc4ccccc34)cc2)cc1OC | 12.1 µM | > 100 µM | 27 µM | 33.5 µM | 57.2 µM | 6.24 µM | > 100 µM | > 100 µM | > 100 µM | 5.1 µM | > 100 µM | 16.8 µM | > 100 µM | 3.21 | 13.8 | 3.26 | 7.45 | 7.03 | 8.16 | 10.9
COc1ccc(C2CC(=O)Nc3c2c(C)nn3-c2nc3ccccc3[nH]2)cc1 (stereo not given) | > 30.4 µM | 8.04 µM | > 59.1 µM | 7.15 µM | > 100 µM | 2.54 µM | 7.12 µM | 16.8 µM | > 53.7 µM | 2.54 µM | 5.72 µM | 2.96 µM | 9.12 µM | 3.47 | 2.22 | 3.71 | 2.67 | 3.76 | 3.64 | 3.28
CNC(=O)c1cc(Oc2ccc3nc(NC(=O)Nc4ccc(Cl)c(Cl)c4)sc3c2)ccn1 | – | 3.3 µM | 4.03 µM | > 100 µM | 5.27 µM | 2.13 µM | 4.74 µM | 6.29 µM | > 100 µM | 2.31 µM | 5.38 µM | 2.46 µM | 6.3 µM | – | 1.51 | 2.06 | 4.09 | 2.36 | 2.45 | 3.92
CCCCCC(=O)N1c2ccccc2NC2=C(C(=O)CC(c3ccc(OC)c(OC)c3)C2)C1c1ccc(C(F)(F)F)cc1 (stereo not given) | > 100 µM | > 100 µM | > 100 µM | > 100 µM | > 100 µM | – | – | > 100 µM | > 100 µM | > 100 µM | > 100 µM | 35.6 µM | > 100 µM | > 100 | > 100 | 15.8 | 70.8 | > 100 | > 100 | > 100
C=C1C(=O)O[C@H]2[C@H]1CC/C(COC(=O)NCCc1ccc(OC)cc1)=C\CC[C@@]1(C)O[C@@H]21 | 4.71 µM | 6.7 µM | 13.6 µM | 3.93 µM | 7.7 µM | 1.98 µM | 4.78 µM | 5.16 µM | – | 2.19 µM | 5.25 µM | 2.52 µM | 7.53 µM | 2.15 | 2.44 | 3.41 | 1.82 | 2.77 | 1.92 | –
COc1ccc(NC2=C(Sc3nc(C)cc(C)n3)C(=O)N(Cc3ccccc3)C2=O)cc1Cl | > 160 µM | > 160 µM | > 160 µM | > 160 µM | > 160 µM | > 160 µM | > 160 µM | > 160 µM | – | > 160 µM | > 160 µM | > 160 µM | > 160 µM | 54.5 | > 160 | 107 | > 160 | 99.2 | > 160 | –
CC1(C)CCSC(/C=C/c2ccccc2)=N1 | 33.1 µM | 25.6 µM | 32.5 µM | 39.8 µM | 29.8 µM | – | 27 µM | > 100 µM | – | – | 28.5 µM | – | 32.3 µM | – | – | – | – | – | – | –
COc1n[n+]([O-])c(C)cc1[N+](=O)[O-] | – | 9.85 µM | 30.5 µM | 22.7 µM | 39.5 µM | 4.97 µM | 18.3 µM | 29.3 µM | 31.6 µM | 8.44 µM | 28.4 µM | 4.84 µM | 19.1 µM | – | 3.04 | 16.1 | 8.26 | 13.4 | 15.7 | 13.5
CCOC(=O)c1cc2c(cc1Cl)SC(N(c1ccc(F)cc1)S(=O)(=O)c1ccc(OC)cc1)=NS2(=O)=O | 34.6 µM | 32.8 µM | 39.5 µM | 29.9 µM | – | 19.5 µM | 49.1 µM | 33.9 µM | 50 µM | 13.9 µM | 28.3 µM | 20.2 µM | 48.7 µM | 16.1 | 14.9 | 14.9 | 13.5 | – | 16.1 | 19.3
